Results: patent US20160045505A1, “COMPOUNDS AND COMPOSITIONS FOR THE TREATMENT OF PARASITIC DISEASES” (NOVARTIS AG, priority 2013, published 2016)

What was measured:
[1] = test system: Trypanosoma cruzi amastigotes (Tulahuen strain expressing Lac-Z) cultured in 3T3 fibroblast cells; assay: microbe, parasite or virus in culture; type: cell-based; conditions: Trypanosoma cruzi, TULAHUEN, Fibroblast, T. cruzi amastigotes in 3T3 fibroblast cells; read-out: T cruzi EC50
[2] = test system: L. donovani HU3 strain in mouse peritoneal macrophages; assay: Assay for proliferation of Leishmania parasites in infected mouse peritoneal macrophages (SybrGreen staining, high-content imaging, 5 days); type: cell-based, Leishmania donovani; conditions: Leishmania donovani, Peritoneal macrophage, L. donovani in mouse peritoneal macrophages; read-out: L. donovani Macrophage EC50
[3] = test system: Trypanosoma brucei Lister 427 strain, bloodstream form; assay: Assay for proliferation of kinetoplastid parasite Trypanosoma brucei (Cell Titer Glo, 48 hours); type: cell-based; conditions: Trypanosoma brucei, T. brucei Lister 427 bloodstream form; read-out: T. brucei EC50
In short: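 Bloodstream-form T. brucei Lister 427 in HMI-9 medium was exposed to compound (DMSO vehicle) for 48 hours at 37° C, 5% CO2. Parasite growth was read as ATP by CellTiter-Glo luminescence, with EC50 calculated from percent inhibition.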

[4] = test system: Leishmania donovani axenic amastigote parasites; assay: Leishmania donovani axenic amastigote proliferation assay (Cell TiterGlo luminescence, 2 day incubation); type: cell-based; conditions: Leishmania donovani, L. donovani axenic amastigotes; read-out: L. donovani amastigotes EC50

Cc1nc(C)c(C(=O)Nc2ccc(F)c(-c3cn4cc(-c5ccccc5F)cnc4n3)c2)o1 [Compound 391]
EC50 [1]: 16 nM | EC50 [2]: 129 nM | EC50 [3]: 53 nM | EC50 [4]: 56 nM

CNc1ccc(-c2cnc3nc(-c4cc(NC(=O)c5oc(C)nc5C)ccc4F)cn3c2)cc1 [Compound 392]
EC50 [1]: 48 nM | EC50 [2]: 152 nM | EC50 [3]: 55 nM | EC50 [4]: 103 nM

Cc1nc(C)c(C(=O)Nc2ccc(F)c(-c3cn4cc(-c5ccnn5C)cnc4n3)c2)o1 [Compound 393]
EC50 [1]: 149 nM | EC50 [2]: 183 nM | EC50 [3]: 110 nM | EC50 [4]: 147 nM

Cc1nc(C)c(C(=O)Nc2ccc(F)c(-c3cn4cc(-c5cccnc5)cnc4n3)c2)o1 [Compound 395]
EC50 [1]: 153 nM | EC50 [2]: 187 nM | EC50 [3]: 45 nM | EC50 [4]: 109 nM

Cc1nc(C)c(C(=O)Nc2ccc(F)c(-c3cn4cc(-c5ccc(F)cc5)cnc4n3)c2)o1 [Compound 396]
EC50 [1]: 17 nM | EC50 [2]: 88 nM | EC50 [3]: 42 nM | EC50 [4]: 55 nM

Cc1nc(C)c(C(=O)Nc2ccc(F)c(-c3cn4cc(-c5ccccc5S(C)(=O)=O)cnc4n3)c2)o1 [Compound 397]
EC50 [1]: 200 nM | EC50 [2]: 448 nM | EC50 [3]: 68 nM | EC50 [4]: 337 nM

Cc1ncc(C(=O)Nc2ccc(F)c(-c3cn4cc(-c5cccnc5)cnc4n3)c2)o1 [Compound 398]
EC50 [1]: 572 nM | EC50 [2]: 424 nM | EC50 [3]: 317 nM | EC50 [4]: 186 nM

CC(C)OC(=O)Nc1ccc(F)c(-c2cn3cc(-c4cccnc4)cnc3n2)c1 [Compound 399]
EC50 [1]: 80 nM | EC50 [2]: 646 nM | EC50 [3]: 103 nM | EC50 [4]: 274 nM

O=C(Nc1ccc(F)c(-c2cn3cc(-c4cccnc4)cnc3n2)c1)N1CC(F)C1 [Compound 401]
EC50 [1]: 445 nM | EC50 [2]: 263 nM | EC50 [3]: 34 nM | EC50 [4]: 94 nM

O=C(Nc1ccc(F)c(-c2cn3cc(-c4cccnc4)cnc3n2)c1)N1CC(F)(F)C1 [Compound 402]
EC50 [1]: 251 nM | EC50 [2]: 285 nM | EC50 [3]: 11 nM | EC50 [4]: 69 nM

O=C(Nc1ccc(F)c(-c2cn3cc(-c4cccnc4)cnc3n2)c1)N1CCC1 [Compound 405]
EC50 [1]: 271 nM | EC50 [2]: 361 nM | EC50 [3]: 13 nM | EC50 [4]: 94 nM

O=C(Nc1ccc(F)c(-c2cn3cc(-c4ccccn4)cnc3n2)c1)N1CC[C@@H](F)C1 [Compound 407]
EC50 [1]: 14 nM | EC50 [2]: 14 nM | EC50 [3]: 4 nM | EC50 [4]: 9 nM

O=C(Nc1ccc(F)c(-c2cn3cc(-c4cccnc4)cnc3n2)c1)N1CC[C@@H](F)C1 [Compound 408]
EC50 [1]: 237 nM | EC50 [2]: 246 nM | EC50 [3]: 18 nM | EC50 [4]: 78 nM

O=C(Nc1ccc(F)c(-c2cn3cc(-c4ccccc4)cnc3n2)c1)N1CC[C@@H](F)C1 [Compound 409]
EC50 [1]: 5 nM | EC50 [2]: 61 nM | EC50 [3]: 4 nM | EC50 [4]: 19 nM

CC(C)c1cnc2nc(-c3cc(NC(=O)N4CCC4)ccc3F)cn2c1 [Compound 411, N-(4-fluoro-3-(6-isopropylimidazo[1,2-a]pyrimidin-2-yl)phenyl)azetidine-1-carboxamide]
EC50 [1]: 46 nM | EC50 [2]: 154 nM | EC50 [3]: 22 nM | EC50 [4]: 83 nM

Cc1nc(C)c(C(=O)Nc2ccc(F)c(-c3cn4cc(C(C)C)cnc4n3)c2)o1 [Compound 412]
EC50 [1]: 48 nM | EC50 [2]: 134 nM | EC50 [3]: 40 nM | EC50 [4]: 46 nM

Cc1ncc(C(=O)Nc2ccc(F)c(-c3cn4cc(C(C)C)cnc4n3)c2)o1 [Compound 413]
EC50 [1]: 14 nM | EC50 [2]: 54 nM | EC50 [3]: 39 nM | EC50 [4]: 26 nM

CC(C)OC(=O)Nc1ccc(F)c(-c2cn3cc(C(C)C)cnc3n2)c1 [Compound 414]
EC50 [1]: 115 nM | EC50 [2]: 1160 nM | EC50 [3]: 131 nM | EC50 [4]: 217 nM

CC(C)c1cnc2nc(-c3cc(NC(=O)N4CC(F)C4)ccc3F)cn2c1 [Compound 415]
EC50 [1]: 44 nM | EC50 [2]: 114 nM | EC50 [3]: 12 nM | EC50 [4]: 28 nM

CC(C)c1cnc2nc(-c3cc(NC(=O)N4CC(F)(F)C4)ccc3F)cn2c1 [Compound 416]
EC50 [1]: 47 nM | EC50 [2]: 93 nM | EC50 [3]: 41 nM | EC50 [4]: 30 nM

CC(C)c1cnc2nc(-c3cc(NC(=O)N(C)C)ccc3F)cn2c1 [Compound 417]
EC50 [1]: 135 nM | EC50 [2]: 1300 nM | EC50 [3]: 145 nM | EC50 [4]: 250 nM

CC(C)c1cnc2nc(-c3cc(NC(=O)N4CC[C@@H](F)C4)ccc3F)cn2c1 [Compound 418]
EC50 [1]: 15 nM | EC50 [2]: 71 nM | EC50 [3]: 8 nM | EC50 [4]: 29 nM

Cc1nc(C)c(C(=O)Nc2ccc(F)c(-c3cn4cc(C(C)c5ccccc5)cnc4n3)c2)o1 (stereo not shown) [Compound 420]
EC50 [1]: 307 nM | EC50 [2]: 1090 nM | EC50 [3]: 520 nM | EC50 [4]: 830 nM

Cc1nc(C)c(C(=O)Nc2ccc(F)c(-c3cn4cc(C5CCCC5)cnc4n3)c2)o1 [Compound 422]
EC50 [1]: 193 nM | EC50 [2]: 305 nM | EC50 [3]: 33 nM | EC50 [4]: 126 nM

CCc1cnc2nc(-c3cc(NC(=O)c4oc(C)nc4C)ccc3F)cn2c1 [Compound 423]
EC50 [1]: 48 nM | EC50 [2]: 217 nM | EC50 [3]: 35 nM | EC50 [4]: 90 nM

Cc1ncc(C(=O)Nc2ccc(F)c(-c3cn4cc(C5CCOCC5)cnc4n3)c2)o1 [Compound 424]
EC50 [1]: 118 nM | EC50 [2]: 164 nM | EC50 [3]: 54 nM | EC50 [4]: 56 nM

Cc1nc(C)c(C(=O)Nc2ccc(F)c(-c3cn4cc(C5CCN(C(=O)OC(C)(C)C)CC5)cnc4n3)c2)o1 [Compound 425, tert-butyl 4-(2-(5-(2,4-dimethyloxazole-5-carboxamido)-2-fluorophenyl)imidazo[1,2-a]pyrimidin-6-yl)piperidine-1-carboxylate]
EC50 [1]: 50 nM | EC50 [2]: 198 nM | EC50 [3]: 97 nM | EC50 [4]: 140 nM

Cc1nc(C)c(C(=O)Nc2ccc(F)c(-c3cn4cc(-c5cn(C)cn5)cnc4n3)c2)o1 [Compound 426, N-(4-fluoro-3-(6-(1-methyl-1H-imidazol-4-yl)imidazo[1,2-a]pyrimidin-2-yl)phenyl)-2,4-dimethyloxazole-5-carboxamide]
EC50 [1]: 124 nM | EC50 [2]: 182 nM | EC50 [3]: 378 nM | EC50 [4]: 16 nM

Cc1nc(C)c(C(=O)Nc2ccc(F)c(-c3cn4cc(-c5nccn5C)cnc4n3)c2)o1 [Compound 427]
EC50 [1]: 1330 nM | EC50 [2]: 438 nM | EC50 [3]: 163 nM | EC50 [4]: 237 nM

Cc1nc(C)c(C(=O)Nc2ccc(F)c(-c3cn4cc(-c5cn(C(C)C)cn5)cnc4n3)c2)o1 [Compound 428]
EC50 [1]: 451 nM | EC50 [2]: 291 nM | EC50 [3]: 161 nM | EC50 [4]: 100 nM

Cc1nc(C)c(C(=O)Nc2ccc(F)c(-c3cn4cc(-c5ncc(F)cc5C)cnc4n3)c2)o1 [Compound 430, N-(4-fluoro-3-(6-(5-fluoro-3-methylpyridin-2-yl)imidazo[1,2-a]pyrimidin-2-yl)phenyl)-2,4-dimethyloxazole-5-carboxamide]
EC50 [1]: 10 nM | EC50 [2]: 59 nM | EC50 [3]: 52 nM | EC50 [4]: 31 nM

Cc1nc(C)c(C(=O)Nc2ccc(F)c(-c3cn4cc(-c5ccc(F)cn5)cnc4n3)c2)o1 [Compound 431]
EC50 [1]: 46 nM | EC50 [2]: 845 nM | EC50 [3]: 149 nM | EC50 [4]: 79 nM

CNc1ccc(-c2cnc3nc(-c4cc(NC(=O)c5oc(C)nc5C)ccc4F)cn3c2)nc1 [Compound 432]
EC50 [1]: 21 nM | EC50 [2]: 33 nM | EC50 [3]: 18 nM | EC50 [4]: 12 nM

Cc1nc(C)c(C(=O)Nc2ccc(F)c(-c3cn4cc(-c5cccc(C(N)=O)n5)cnc4n3)c2)o1 [Compound 433]
EC50 [1]: > 20000 nM | EC50 [2]: > 50000 nM | EC50 [3]: 494 nM | EC50 [4]: 1810 nM

Cc1nc(C)c(C(=O)Nc2ccc(F)c(-c3cn4cc(-c5cccc(F)n5)cnc4n3)c2)o1 [Compound 434]
EC50 [1]: 42 nM | EC50 [2]: 924 nM | EC50 [3]: 160 nM | EC50 [4]: 107 nM

Cc1nc(C)c(C(=O)Nc2ccc(F)c(-c3cn4cc(-c5cc(F)ccn5)cnc4n3)c2)o1 [Compound 435]
EC50 [1]: 16 nM | EC50 [2]: 49 nM | EC50 [3]: 42 nM | EC50 [4]: 19 nM

Cc1nc(C)c(C(=O)Nc2ccc(F)c(-c3cn4cc(-c5ccc(F)nc5)cnc4n3)c2)o1 [Compound 436]
EC50 [1]: 50 nM | EC50 [2]: 1720 nM | EC50 [3]: 72 nM | EC50 [4]: 77 nM

CC(=O)c1ccc(-c2cnc3nc(-c4cc(NC(=O)c5oc(C)nc5C)ccc4F)cn3c2)cn1 [Compound 437]
EC50 [1]: 682 nM | EC50 [2]: 1250 nM | EC50 [3]: 403 nM | EC50 [4]: 80 nM

Cc1nc(C)c(C(=O)Nc2ccc(F)c(-c3cn4cc(-c5cncc(C(C)C)c5)cnc4n3)c2)o1 [Compound 438]
EC50 [1]: 146 nM | EC50 [2]: 282 nM | EC50 [3]: 109 nM | EC50 [4]: 141 nM

Cc1cnc(F)c(-c2cnc3nc(-c4cc(NC(=O)c5oc(C)nc5C)ccc4F)cn3c2)c1 [Compound 439]
EC50 [1]: 89 nM | EC50 [2]: 754 nM | EC50 [3]: 121 nM | EC50 [4]: 108 nM

Cc1cncc(-c2cnc3nc(-c4cc(NC(=O)c5oc(C)nc5C)ccc4F)cn3c2)c1 [Compound 440]
EC50 [1]: 238 nM | EC50 [2]: 200 nM | EC50 [3]: 315 nM | EC50 [4]: 119 nM

Cc1ccc(-c2cnc3nc(-c4cc(NC(=O)c5oc(C)nc5C)ccc4F)cn3c2)cn1 [Compound 441]
EC50 [1]: 141 nM | EC50 [2]: 912 nM | EC50 [3]: 309 nM | EC50 [4]: 97 nM

Cc1nc(C)c(C(=O)Nc2ccc(F)c(-c3cn4cc(-c5cnccc5C)cnc4n3)c2)o1 [Compound 442]
EC50 [1]: 48 nM | EC50 [2]: 208 nM | EC50 [3]: 55 nM | EC50 [4]: 87 nM
